According to patent publication US6407103B2, “Indeno [1,2-c] pyrazol-4-ones and their uses” (Bristol-Myers Squibb Pharma Company, priority 1998, dated 2002):
Where a name gives a salt, the structure may show the parent alone.

melting point [°C] | Structure (SMILES)
297 | COc1ccc(-c2[nH]nc3c2C(=O)c2c(NC(=O)C4CCC4)cccc2-3)cc1 [Example VII, 3-(4-methoxyphenyl)-5-(cyclobutanecarboxamido)indeno[1,2-c]pyrazol-4-one]
249 | CCOC(=O)c1ccc(-c2[nH]nc3c2C(=O)c2c(NC(=O)NN4CCN(C)CC4)cccc2-3)s1 [Example CXXII, 3-(5-carboethoxy-2-thienyl)-5-((4-methylpiperazino)carbamoylamino)indeno [1,2-c]pyrazol-4-one]
148 | CN1CCC(C(=O)N2CCC(c3[nH]nc4c3C(=O)c3c(NC(=O)NN5CCOCC5)cccc3-4)CC2)CC1 (as salt: TFA) [Example CCLXXX, 3-(1-((1-methylpiperidin-4-yl)carbonyl)piperidin-4-yl)-5-(morpholinocarbamoylamino)indeno[1,2-c]pyrazol-4-one]
264 | CN(C)[C@H]1CCN(C(=O)c2ccc(-c3[nH]nc4c3C(=O)c3c(NC(=O)NN5CCOCC5)cccc3-4)s2)C1 (as salt: TFA) [Example CLXXXII, 3-(5-(3(S)-(N,N-dimethylamino)pyrrolidinocarbonyl)-2-thienyl)-5-(morpholinocarbamoylamino)indeno[1,2-c]pyrazol-4-one]
107 | CN(C)c1ccc(CC(=O)N2CCC(c3[nH]nc4c3C(=O)c3c(NC(=O)NN5CCOCC5)cccc3-4)CC2)cc1 (as salt: TFA) [Example CCXCV, 3-(1-(4-(dimethylamino)benzylcarbonyl)piperidin-4-yl)-5-(morpholinocarbamoylamino)indeno[1,2-c]pyrazol-4-one]
221 | COC(C)(C)[C@H]1CCCN1NC(=O)Nc1cccc2c1C(=O)c1c-2n[nH]c1-c1ccc(N2CCNCC2)cc1 (as salt: TFA) [Example CCXXXI, 3-(4-piperazinophenyl)-5-((2(R)-(1-methoxy-1-methylethyl)pyrrolidino)carbamoylamino)indeno[1,2-c]pyrazol-4-one]
103 | NCCCCC(=O)N1CCC(c2[nH]nc3c2C(=O)c2c(NC(=O)NN4CCOCC4)cccc2-3)CC1 (as salt: TFA) [Example CCLXXVII, 3-(1-(4-aminobutylcarbonyl)piperidin-4-yl)-5-(morpholinocarbamoylamino)indeno[1,2-c]pyrazol-4-one]
213 | O=C(Nc1cccc2c1C(=O)c1c-2n[nH]c1-c1ccc(C(=O)NN2CCCC2)s1)NN1CCOCC1 (as salt: TFA) [Example CXLVI, 3-(5-pyrrolidinoaminocarbonyl-2-thienyl)-5-(morpholinocarbamoylamino)indeno [1,2-c]pyrazol-4-one]
> 300 | COc1ccc(-c2[nH]nc3c2C(=O)c2c(NC(=O)Cc4cccc(OC)c4)cccc2-3)cc1 [Example XI, 3-(4-methoxyphenyl)-5-((3-methoxyphenyl)acetamido)indeno[1,2-c]pyrazol-4-one]
253 | CC(C)N1CCN(c2ccc(-c3[nH]nc4c3C(=O)c3c(NC(=O)NN5CCOCC5)cccc3-4)cc2)CC1 (as salt: TFA) [Example CCXX, 3-(4-(4-isopropylpiperazino)phenyl)-5-(morpholinocarbamoylamino)indeno[1,2-c]pyrazol-4-one]
153 | CN(C)C1CCCC(C(=O)N2CCC(c3[nH]nc4c3C(=O)c3c(NC(=O)NN5CCOCC5)cccc3-4)CC2)C1 (stereo not drawn) (as salt: TFA) [Example CCXCI, 3-(1-(3-(dimethylamino)cyclohexylcarbonyl)piperidin-4-yl)-5-(morpholinocarbamoylamino)indeno[1,2-c]pyrazol-4-one]
240 | NCC1CCN(CC(=O)Nc2cccc3c2C(=O)c2c-3n[nH]c2-c2ccc(N3CCOCC3)cc2)CC1 [Example LXXXIV, 3-(4-morpholinophenyl)-5-(4-(aminomethyl)piperidinoacetamido)indeno[1,2-c]pyrazol-4-one]
291 | COc1ccc(-c2[nH]nc3c2C(=O)c2c(NC(=O)CN4CCCCC4)cccc2-3)cc1 [Example XXIX, 3-(4-methoxyphenyl)-5-(piperidinoacetamido)indeno[1,2-c]pyrazol-4-one]
258 | COC[C@H]1CCCN1NC(=O)Nc1cccc2c1C(=O)c1c-2n[nH]c1-c1ccc(C(=O)O)s1 (as salt: TFA) [Example CCII, 3-(5-carboxyl-2-thienyl)-5-(2(R)-(methoxymethyl)pyrrolidinocarbamoylamino)indeno[1,2-c]pyrazol-4-one]
212 | N[C@H]1CC[C@@H](C(=O)N2CCC(c3[nH]nc4c3C(=O)c3c(NC(=O)NN5CCOCC5)cccc3-4)CC2)CC1 (as salt: TFA) [Example CCLXXXII, 3-(1-(cis-4-aminocyclohexylcarbonyl)piperidin-4-yl)-5-(morpholinocarbamoylamino)indeno[1,2-c]pyrazol-4-one]
186 | CCN1CCN(C(=O)c2ccc(-c3[nH]nc4c3C(=O)c3c(NC(=O)NN5CCOCC5)cccc3-4)s2)CC1 (as salt: TFA) [Example CLI, 3-(5-(4-ethylpiperazinocarbonyl)-2-thienyl)-5-(morpholinocarbamoylamino)indeno[1,2-c]pyrazol-4-one]
289 | COc1ccc(-c2[nH]nc3c2C(=O)c2c(NC(=O)C4CC4)cccc2-3)cc1 [Example III, 3-(4-methoxyphenyl)-5-(cyclopropanecarboxamido)indeno[1,2-c]pyrazol-4-one]
238 | CN(C)NC(=O)Nc1cccc2c1C(=O)c1c-2n[nH]c1-c1ccc(N2CCNCC2)cc1 (as salt: TFA) [Example CCXXI, 3-(4-piperazinophenyl)-5-((N,N-dimethylamino)carbamoylamino)indeno[1,2-c]pyrazol-4-one]
264 | O=C(Nc1cccc2c1C(=O)c1c-2n[nH]c1[C@H]1CC[C@H](C(=O)O)CC1)NN1CCOCC1 (as salt: TFA) [Example CCC, 3-(trans-4-carboxylcyclohexyl)-5-(morpholinocarbamoylamino)indeno[1,2-c]pyrazol-4-one]
243 | CN(C)CC(=O)Nc1cccc2c1C(=O)c1c-2n[nH]c1-c1ccc(N2CCNCC2)cc1 (as salt: TFA) [Example CCXIV, 3-(4-piperazinophenyl)-5-((N,N-dimethylamino)acetamido)indeno[1,2-c]pyrazol-4-one]
> 300 | Cn1ccc(-c2[nH]nc3c2C(=O)c2c(NC(N)=O)cccc2-3)c1 [Example CXII, 3-(1-methyl-3-pyrrolyl)-5-(carbamoylamino)indeno[1,2-c]pyrazol-4-one]
> 300 | CC(=O)Nc1cccc2c1C(=O)c1c-2n[nH]c1-c1ccncc1 [Example XLIX, 3-(4-pyridyl)-5-(acetamido)indeno [1,2-c]pyrazol-4-one]
238 | COc1ccc(-c2[nH]nc3c2C(=O)c2c(NC(=O)Cc4ccc(Cl)cc4)cccc2-3)cc1 [Example X, 3-(4-methoxyphenyl)-5-((4-chlorophenyl)acetamido)indeno[1,2-c]pyrazol-4-one]
> 300 | CN(C)CC1CCCCN1C(=O)c1ccc(-c2[nH]nc3c2C(=O)c2c(NC(=O)NN4CCOCC4)cccc2-3)s1 (stereo not drawn) (as salt: TFA) [Example CLXXII, 3-(5-(2-(N,N-dimethylaminomethyl)piperidinocarbonyl)-2-thienyl)-5-(morpholinocarbamoylamino)indeno[1,2-c]pyrazol-4-one]
> 300 | CC(=O)N(C)[C@H]1CCN(C(=O)c2ccc(-c3[nH]nc4c3C(=O)c3c(NC(=O)NN5CCOCC5)cccc3-4)s2)C1 (as salt: TFA) [Example CLXXVIII, 3-(5-(3(S)-(N-methylacetamido)pyrrolidinocarbonyl)-2-thienyl)-5-(morpholinocarbamoylamino)indeno[1,2-c]pyrazol-4-one]
206 | CCOC(=O)N1CCC(c2[nH]nc3c2C(=O)c2c(NC(=O)NN4CCOCC4)cccc2-3)CC1 (as salt: TFA) [Example CCLXII, 3-(1-ethoxycarbonylpiperidin-4-yl)-5-(morpholinocarbamoylamino)indeno[1,2-c]pyrazol-4-one]
> 300 | NC(=O)Nc1cccc2c1C(=O)c1c-2n[nH]c1-c1csc(Cl)c1 [Example CI, 3-(5-chloro-3-thienyl)-5-(carbamoylamino)indeno[1,2-c]pyrazol-4-one]
169 | O=C(Nc1cccc2c1C(=O)c1c-2n[nH]c1C1CCN(C(=O)C2CCCNC2)CC1)NN1CCOCC1 (stereo not drawn) (as salt: TFA) [Example CCLXXXVII, 3-(1-(piperidin-3-ylcarbonyl)piperidin-4-yl)-5-(morpholinocarbamoylamino)indeno[1,2-c]pyrazol-4-one]
250 | CCNCC(=O)Nc1cccc2c1C(=O)c1c-2n[nH]c1-c1ccc(OC)cc1 [Example XXXI, 3-(4-methoxyphenyl)-5-(ethylaminoacetamido)indeno[1,2-c]pyrazol-4-one]
216 | CN(C)C1CCN(C(=O)c2ccc(-c3[nH]nc4c3C(=O)c3c(NC(=O)NN5CCOCC5)cccc3-4)s2)C1 (stereo not drawn) (as salt: TFA) [Example CLXXX, 3-(5-(3-(N,N-dimethylamino)pyrrolidinocarbonyl)-2-thienyl)-5-(morpholinocarbamoylamino)indeno[1,2-c]pyrazol-4-one]

Structure (SMILES) | melting point [°C]
CC(C)(C)OC(=O)Nc1ccc(CC(=O)N2CCC(c3[nH]nc4c3C(=O)c3c(NC(=O)NN5CCOCC5)cccc3-4)CC2)cc1 [Example CCXCVI, 3-(1-(4-(t-butoxycarbonylamino)benzylcarbonyl)piperidin-4-yl)-5-(morpholinocarbamoylamino)indeno[1,2-c]pyrazol-4-one] | 177
CN(C(=O)OC(C)(C)C)[C@H]1CCN(C(=O)c2ccc(-c3[nH]nc4c3C(=O)c3c(NC(=O)NN5CCOCC5)cccc3-4)s2)C1 (as salt: TFA) [Example CLXXIX, 3-(5-(3(S)-(N-methyl-t-butoxycarbonylamino)pyrrolidinocarbonyl)-2-thienyl)-5-(morpholinocarbamoylamino)indeno[1,2-c]pyrazol-4-one] | > 300
CC(C)(C)OC(=O)N1CCN(C(=O)c2ccc(-c3[nH]nc4c3C(=O)c3c(NC(=O)NN5CCOCC5)cccc3-4)s2)CC1 (as salt: TFA) [Example CLIV, 3-(5-(4-(t-butoxycarbonyl)piperazinocarbonyl)-2-thienyl)-5-(morpholinocarbamoylamino)indeno[1,2-c]pyrazol-4-one] | 225
